The subject of test [1] is primary human subcutaneous preadipocytes. Description: Human adipocyte differentiation (oil red-O staining). It is filed as cell-based. To be noted: human adipocyte differentiation in presence of insulin and dexamethasone. As to the method:
Assays are carried out on primary human subcutaneous preadipocytes. Preadipocytes are inoculated at high density in preadipocyte medium (DME/F-10, 1:1, (v/v) containing 10% fetal calf serum) and maintained overnight for attachment. Drug treatment is initiated the second day by changing to serum free medium containing test compounds. The basal medium, which is used as the negative control, contains DME/F-10, biotin (33 μM), pantothenate (17 μM), insulin (100 nM), and dexamethasone (1 μM) and BRL 49653 is included as a positive control. The culture is maintained for 14 days with the compound treatment during the first five days. At the end of the culture, cells are fixed in 5% formalin and stained with oil red-O dye. The dye is extracted by isopropanol and quantitated by measure the optical density at 500 nm. EC50 values found in Table 1 reflect the human adipocyte differentiation of the compound in presence of insulin and dexamethasone.

For test [2], the target named is T1, LBD (ligand binding domain) of the PPAR-γ receptor (Homo sapiens, UniProt P37231).
T1 sequence (P37231 238-503 limits assumed): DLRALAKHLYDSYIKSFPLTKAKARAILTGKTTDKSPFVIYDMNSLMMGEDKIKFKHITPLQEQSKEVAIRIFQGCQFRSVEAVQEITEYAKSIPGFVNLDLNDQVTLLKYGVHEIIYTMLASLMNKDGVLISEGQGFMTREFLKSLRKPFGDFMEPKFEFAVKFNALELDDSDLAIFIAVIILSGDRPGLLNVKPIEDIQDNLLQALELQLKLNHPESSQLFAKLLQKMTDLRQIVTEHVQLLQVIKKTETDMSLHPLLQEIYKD
Description: Binding to PPAR-γ receptor (inhibition of 3H-PPAR-γ ligand binding to LBD). To be noted: 8 nM 3H-PPAR ligand, 210 ng LBD/well, 2 hours. As to the method:
Binding to PPAR-γ Receptor Compounds are assayed for their ability to inhibit the binding of 3H-PPAR-γ ligand to the LBD (ligand binding domain) of the PPAR-γ receptor. Compounds are tested at 4 concentrations (1 μM to 1 nM) in triplicate. Compounds are incubated with H3-PPAR ligand (8 nM final concentration) and LBD (210 ng/assay well) in assay buffer (50 mM Tris pH8.0. 50 mM KCL, 2 mM EDTA, 0.3% CHAPS, 0.1 mg/ml BSA, 10 mM DTT) for 2 hours with gentle shaking. Non-specific binding is measured in the presence of 10 μM excess cold competitor. Bound ligand is separated using gel filtration plates (Edge Biosystems 31909) and captured on 96 well Wallac MicroBeta plates (1450-5150 by centrifugation for 5 minutes at 2500 rpm. Radioactivity is measured in a Wallac Micro Beta counter. Table 2 gives the IC50 values of compounds 1 and 2.

The subject of test [3] is Zucker Obese Rats. Description: Blood glucose lowering in diabetic rats. The settings on record: oral gavage once daily. It is filed as in vivo, rat. How it is done:
[The source words this procedure for another organism and reports this organism under the same test.] Male Zucker lean rats, 24-28 weeks of age, are fed high fat chow (AIN-93-M formulation) for two weeks to elevate blood glucose. At blood glucose concentrations over 160 mg/dl, a three day pre-study baseline is established by measuring blood glucose daily (at 0700-0800 hrs) via tail vein blood extraction and measurement using a glucometer. Animals are segregated into groups of 5 based on weights and baseline glucose. Compounds are then administered to the animals at various concentrations (30 mg compound/kg body weight or 10 mg compound/kg body weight). The drugs were suspended in 0.5% carboxymethylcellulose (Sigma) in a total gavage volume of 250 μL. Animals are dosed for seven days, once daily in the morning after blood glucose and weight determination. At the end of the seven-day period, the animals are euthanized by exsanguination after isofluorane anesthesia.

The mark [4] stands for this setting: 14 day culture, compound first five days, read-out: EC50 Differentiation.
[5] abbreviates: read-out: EC50 Inhibition of Differentiation.
[6] abbreviates: Treatment Day 0 (baseline), 30 or 10 mg/kg (dose not given).

SMILES strings stand for the structures. Read-outs that look alike come from different tables or passages of the source.

Experimental findings from US6713514B1, “PPAR-γ agonists as agents for the treatment of type II diabetes” (Lexicon Pharmaceuticals, Inc., priority 1999, dated 2004) are described below.

A word on the EC50: it is the concentration needed to bring the measured effect to its halfway point. What is called IC50 is the point on the concentration scale where inhibition reaches its midpoint. Higher therefore signals lower potency.

Take `O=C(NCCCc1ccccc1)c1ccc(C[C@H](NCc2ccccc2)C(=O)O)cc1` [Compound 1, (2S)-2-[benzylamino]-3-{4-[N-(3-phenylpropyl)carbamoyl]phenyl}propanoic acid]: the EC50 in test [1] (setting [4]) was 150 nM; in test [1] (setting [5]), above 10000 nM. The same molecule had an IC50 in test [2] of 1700 nM. In addition, the “Blood Glucose (mg/dl ± SEM)” value stood at 133 ± 11 mg/dL in test [3] (setting [6]); 134 ± 11 mg/dL in test [3] (Treatment Day 1); 105 ± 7 mg/dL in test [3] (Treatment Day 2); 105 ± 4 mg/dL in test [3] (Treatment Day 3); 97 ± 16 mg/dL in test [3] (Treatment Day 4); 113 ± 3 mg/dL in test [3] (Treatment Day 5). Moreover, the “Blood Glucose (mg/dl ± SEM)” value was 105 ± 6 mg/dL in test [3] (Treatment Day 6) and 104 ± 8 mg/dL in test [3] (Treatment Day 7).
With `CN(C(=O)c1ccc(C[C@H](NCc2ccccc2)C(=O)O)cc1)C1CCCC1Sc1ccccc1` (stereo partly drawn) [Compound 2, (2S)-3-{4-[N-methyl-N(2-phenylthiocyclopentyl)carbamoyl]phenyl}-2-[benzylamino]propanoic acid], the half-maximal effective concentration (EC50) was 175 nM in test [1] (setting [4]) and above 10000 nM in test [1] (setting [5]). This molecule also returned an IC50 in test [2] of 3300 nM. The “Blood Glucose (mg/dl ± SEM)” value was determined as 133 ± 11 mg/dL in test [3] (setting [6]); 136 ± 5 mg/dL in test [3] (Treatment Day 1); 104 ± 1 mg/dL in test [3] (Treatment Day 2); 100 ± 9 mg/dL in test [3] (Treatment Day 3); 93 ± 6 mg/dL in test [3] (Treatment Day 4); 100 ± 4 mg/dL in test [3] (Treatment Day 5). The “Blood Glucose (mg/dl ± SEM)” value is 101 ± 5 mg/dL in test [3] (Treatment Day 6) and 92 ± 6 mg/dL in test [3] (Treatment Day 7).
Regarding `CN(CCOc1ccc(CC2SC(=O)NC2=O)cc1)c1ccccn1` (stereo not drawn) [Rosiglitizone, reference compound], the concentration for a half-maximal effect (EC50) was 100 nM in test [1] (setting [4]) and above 10000 nM in test [1] (setting [5]).
